Data: paper PMC2943923, “Human Integrin α3β1 Regulates TLR2 Recognition of Lipopeptides from Endosomal Compartments” (PLoS ONE, 2010)

Legend:
[1] = test system: U937 macrophages; test: IL-6 secretion (ELISA) of U937 macrophages stimulated with Pam3CSK4; format: cell-based, human; settings: 100 ng/ml Pam3CSK4, 6 hours; for decrease in Pam3CSK4-induced IL-6 secretion relative to control cells: 100 ng/ml concanamycin A, p = 0.037; for decrease in Pam3CSK4-induced IL-6 secretion relative to control cells / mean secretion of IL-6 by inhibitor-treated cells: 500 µM bafilomycin A1, 1 µM monensin, 5 µM CPZ; for mean secretion of IL-6 by inhibitor-treated cells: inhibitor added 30 minutes before: 100 ng/ml concanamycin A
Description: (§1) The human monocyte cell line U937 (American Type Culture Collection) was maintained in RPMI (Mediatech) with 10% FBS and 1% penicillin-streptomycin. For all experiments, U937 monocytes were differentiated at a concentration of 5×10^5 cells per well in 24-well plates with 100 nM phorbol 12-myristate 13-acetate (Sigma) for 48 hours. All experiments were performed under serum-free conditions, unless otherwise noted.
The TLR2/1 triacylated lipid ligand, Pam3CSK4 (Invivogen), biotinylated Pam3CSK4 (Axxora) or Pam3CSK4-rhodamine (Invivogen) were resuspended in endotoxin-free water. Pam3CSK4 was used at a concentration of 100 ng/ml to stimulate macrophages, and Pam3CSK4-biotin and Pam3CSK4-rhodamine were used at indicated concentrations.
Inhibition of endosomal acidification was achieved using inhibitors of V-ATPase, concanamycin A (100 ng/ml) and bafilomycin A1 (500 µM) (Sigma) or the ionophore monensin (1 µM) (Sigma). Clathrin-mediated endocytosis was inhibited with chlorpromazine (CPZ) (5 µM) (Sigma). Concentrations were chosen based on prior studies, [61]. All inhibitors were added 30 minutes prior to stimulation. For CPZ experiments, the media was replaced at the time of stimulation to remove CPZ. […]
Supernatants were collected 6 hours post stimulation. IL-6 and TNF-α were measured using the DuoSet enzyme linked immunoabsorbent assay (ELISA) kit (R&D systems) following the manufacturer's instructions.

[2] = test system: U937 macrophages; test: IL-6 secretion (ELISA) of U937 macrophages stimulated with B. burgdorferi; format: cell-based, human; settings: for mean secretion of IL-6 by inhibitor-treated cells: B. burgdorferi MOI 10, 6 hours, serum-free, three experiments
Description: as §1
Clonal isolates of infectious, low passage B. burgdorferi sensu stricto (strain N40, clone D10E9) were cultured in Barbour-Stoenner-Kelley (BSK II) medium at 37°C as described, and used at multiplicity of infection (MOI) 10∶1.
(§2) Inhibition of endosomal acidification was achieved using inhibitors of V-ATPase, concanamycin A (100 ng/ml) and bafilomycin A1 (500 µM) (Sigma) or the ionophore monensin (1 µM) (Sigma). Clathrin-mediated endocytosis was inhibited with chlorpromazine (CPZ) (5 µM) (Sigma). Concentrations were chosen based on prior studies, [61]. All inhibitors were added 30 minutes prior to stimulation. For CPZ experiments, the media was replaced at the time of stimulation to remove CPZ.
For blocking antibody experiments, U937 macrophages were incubated for 2 hours prior to stimulation with 50 µg/ml of control mouse ascites fluid (NS-1 murine myeloma, Sigma-Aldrich) or anti-integrin α3β1 monoclonal antibody (P1B5, Millipore).
(§3) Supernatants were collected 6 hours post stimulation.

[3] = test system: U937 macrophages; test: IL-6 secretion of U937 macrophages stimulated with TNF-α (inhibitor control); format: cell-based, human; settings: pre-treatment with inhibitor, stimulation with TNF-α; data not shown
Description: as §2, §3

[4] = test system: U937 macrophages; test: IFN-α1 transcript (qRT-PCR) in Pam3CSK4-stimulated U937 macrophages; format: cell-based, human; settings: 100 ng/ml Pam3CSK4, serum-free; for reduction of IFN-α1 transcript levels: 100 ng/ml concanamycin A or 1 µM monensin, 6 and 16 hours, p = 0.037
Description: as §2
Cells were collected at 6 hours post infection unless otherwise indicated. RNA was extracted using TRIzol (Invitrogen) following the manufacturer's instructions. RNA was resuspended in water containing RNaseOut (Invitrogen) and treated with DNaseI using the Turbo DNA-free kit (Ambion). cDNA was synthesized using the ImPromII kit (Promega) following the manufacturer's instructions. Quantification of cDNA was performed by quantitative RT-PCR (iCycler, BioRad) using the iQ SYBR Green Supermix (BioRad). Cycling parameters were 95°C for 15 minutes followed by 40 cycles of 95°C for 30 seconds, 60°C for 30 seconds, and 72°C for 30 seconds. Primers used to measure IL-6, TNF-α, and β-actin were published previously, [62]. Human integrin α3 primers, forward: 5′-[…]-3′, reverse 5′-[…]-3′ were generated by Primer Bank, ID# 6006011a1. Human integrin αv primers, forward: 5′-[…]-3′, reverse 5′-[…]-3′ were generated by Primer Bank, ID# 4504763a2. Human integrin α5 primers, forward: 5′-[…]-3′, reverse 5′-[…]-3′ were generated by Primer Bank, ID# 4504751a3. Human integrin α6 primers, forward: 5′-TCGGCACAGCAACCTTGAA-3′, reverse 5′-[…]-3′ were generated by Primer Bank, ID# 30046796a2. Human TLR2 primers, forward: 5′-[…]-3′, reverse 5′- […]-3′. Human TLR4 primers, forward: 5′-[…]-3′, reverse 5′-[…]-3′ were generated by Primer Bank, ID# 19924149a1. Human TLR7 primers, forward: 5′-[…]-3′, reverse 5′-[…]-3′. Human TLR9 primers, forward: 5′-GCGACCAGGCTCCCGAAGG-3′, reverse 5′-[…]-3′. Human IFN-α1 primers, forward: 5′-[…]-3′, reverse: 5′-[…]-3′ were generated by Primer Bank, ID# 13128950a1 [63], [64]. […]

[5] = test system: U937 macrophages; test: TNF-α secretion (ELISA) of U937 macrophages stimulated with Pam3CSK4; format: cell-based, human; settings: Fig S5A; 100 ng/ml concanamycin A or 1 µM monensin; 100 ng/ml Pam3CSK4, 6 hours, serum-free
Description: as §2, §3

[6] = test system: U937 macrophages; test: IL-6 transcript (qRT-PCR) in Pam3CSK4-stimulated U937 macrophages; format: cell-based, human; settings: 1 µM monensin; 100 ng/ml Pam3CSK4, 6 hours, serum-free; normalized to β-actin (Fig. S2)
Description: as §2
(§4) Cells were collected at 6 hours post infection unless otherwise indicated. RNA was extracted using TRIzol (Invitrogen) following the manufacturer's instructions. RNA was resuspended in water containing RNaseOut (Invitrogen) and treated with DNaseI using the Turbo DNA-free kit (Ambion). cDNA was synthesized using the ImPromII kit (Promega) following the manufacturer's instructions. Quantification of cDNA was performed by quantitative RT-PCR (iCycler, BioRad) using the iQ SYBR Green Supermix (BioRad). Cycling parameters were 95°C for 15 minutes followed by 40 cycles of 95°C for 30 seconds, 60°C for 30 seconds, and 72°C for 30 seconds. Primers used to measure IL-6, TNF-α, and β-actin were published previously, [62]. Human integrin α3 primers, forward: 5′-[…]-3′, reverse 5′-[…]-3′ were generated by Primer Bank, ID# 6006011a1. […]

[7] = test system: U937 macrophages; test: IL-6 transcript (qRT-PCR) in B. burgdorferi-stimulated U937 macrophages; format: cell-based, human; settings: 1 µM monensin; B. burgdorferi MOI 10, 6 hours, serum-free (Fig. S4)
Description: as §2, §4

[8] = test system: U937 macrophages; test: IFN-β transcript (qRT-PCR) in Pam3CSK4-stimulated U937 macrophages; format: cell-based, human; settings: 100 ng/ml Pam3CSK4, serum-free, 6 hrs or 16 hrs post stimulation
Description: Cells were collected at 6 hours post infection unless otherwise indicated. RNA was extracted using TRIzol (Invitrogen) following the manufacturer's instructions. RNA was resuspended in water containing RNaseOut (Invitrogen) and treated with DNaseI using the Turbo DNA-free kit (Ambion). cDNA was synthesized using the ImPromII kit (Promega) following the manufacturer's instructions. Quantification of cDNA was performed by quantitative RT-PCR (iCycler, BioRad) using the iQ SYBR Green Supermix (BioRad). Cycling parameters were 95°C for 15 minutes followed by 40 cycles of 95°C for 30 seconds, 60°C for 30 seconds, and 72°C for 30 seconds. Primers used to measure IL-6, TNF-α, and β-actin were published previously, [62]. Human integrin α3 primers, forward: 5′-[…]-3′, reverse 5′-[…]-3′ were generated by Primer Bank, ID# 6006011a1. Human integrin αv primers, forward: 5′-[…]-3′, reverse 5′-[…]-3′ were generated by Primer Bank, ID# 4504763a2. Human integrin α5 primers, forward: 5′-[…]-3′, reverse 5′-[…]-3′ were generated by Primer Bank, ID# 4504751a3. Human integrin α6 primers, forward: 5′-TCGGCACAGCAACCTTGAA-3′, reverse 5′-[…]-3′ were generated by Primer Bank, ID# 30046796a2. Human TLR2 primers, forward: 5′-[…]-3′, reverse 5′- […]-3′. Human TLR4 primers, forward: 5′-[…]-3′, reverse 5′-[…]-3′ were generated by Primer Bank, ID# 19924149a1. Human TLR7 primers, forward: 5′-[…]-3′, reverse 5′-[…]-3′. […]

[9] = test system: murine bone marrow derived macrophages; test: IFN-β induction in murine bone marrow derived macrophages; format: cell-based; settings: data not shown
[10] = Fig 5, serum-free, three experiments
[11] = 100 ng/ml concanamycin A, 500 µM bafilomycin A1, 1 µM monensin
[12] = Homo sapiens, U-937, 6 h, read-out: inhibition of B. burgdorferi induction of IL-6

Compound | decrease in Pam3CSK4-induced IL-6 secretion relative to control cells ([1]; serum-free) [%] | mean secretion of IL-6 by inhibitor-treated cells [1, 10] [pg/mL] | mean secretion of IL-6 by inhibitor-treated cells [2, 11] [pg/mL] | change in secretion of IL-6 in response to TNF-α [3] | reduction of IFN-α1 transcript levels [4] [%] | mean secretion of TNF-α by inhibitor-treated cells [5] [pg/mL] | further results
CN(C)CCCN1c2ccccc2Sc2ccc(Cl)cc21 [CPZ, chlorpromazine] | 49 | 340 |  |  |  |  | 
CO/C1=C\C(C)=C\[C@@H](C)[C@@H](O)[C@@H](C)C/C(C)=C/C=C/[C@H](OC)[C@@H]([C@@H](C)[C@@H](O)[C@H](C)[C@@]2(O)C[C@@H](O)[C@H](C)[C@@H](C(C)C)O2)OC1=O [bafilomycin A1] | 37 | 430 | 680 | no significant change |  |  | inhibition at 500 µM [2, 12]: 30%
C/C=C/[C@H]1O[C@@](O)([C@@H](C)[C@H](O)[C@H](C)[C@H]2OC(=O)/C(OC)=C/C(C)=C/[C@@H](C)[C@@H](O)[C@@H](CC)[C@@H](O)[C@H](C)C/C(C)=C/C=C/[C@@H]2OC)C[C@@H](O[C@H]2C[C@@H](O)[C@H](OC(N)=O)[C@@H](C)O2)[C@@H]1C [concanamycin A] | 53 | 320 | 437 | no significant change | 84 | 928 | inhibition of B. burgdorferi induction of IL-6 ([2]; 100 ng/ml concanamycin A, 500 µM bafilomycin A1, 1 µM monensin, MOI 10, 6 hours, p = 0.037): 56%
CC[C@@]1([C@@H]2O[C@@H]([C@H]3O[C@@](O)(CO)[C@H](C)C[C@@H]3C)C[C@@H]2C)CC[C@H]([C@]2(C)CC[C@]3(C[C@H](O)[C@@H](C)[C@@H]([C@@H](C)[C@@H](OC)[C@H](C)C(=O)O)O3)O2)O1 [monensin] | 38 | 420 | 567 | decrease in IL-6 secretion | 88 | 567 | inhibition at 1 µM [2, 12]: 40%; reduction of IL-6 transcript [6]: 32%; reduction of IL-6 transcript [7]: 51%
palmitoyl-3-Cys-Ser-(Lys)4 [Pam3CSK4, synthetic TLR2/1 triacylated lipid ligand, prototypical bacterial lipopeptide (Invivogen)] |  |  |  |  |  |  | induction of IFN-β [8]: did not observe any induction; mean secretion of IL-6 ([1]; Fig 1A, cells transduced with control shRNA, serum-free, mean of three independent experiments): 350 pg/mL; mean secretion of IL-6 ([1]; Fig 2A, in the presence of 1% FBS, three experiments): 975 pg/mL; mean secretion of IL-6 ([1]; Fig 2A, serum-free, three experiments): 1,048 pg/ml; mean secretion of IL-6 ([1]; Fig 2B, control shRNA cells, 1% FBS): 974 pg/mL; mean secretion of IL-6 ([1]; Fig 2B, control shRNA cells, serum-free): 1,048 pg/ml; mean secretion of IL-6 ([1]; Fig 5, control cells (no inhibitor), serum-free, three experiments): 670 pg/mL; induction of IFN-β [9]: confirm Pam3CSK4-induced IFN-β; induction of IFN-α1 (interferon response) [4]: induces an interferon response
